As usually defined, the inhibition is how much of the control response was suppressed. Broadly, the IC50 is the midpoint of a concentration-inhibition curve.

The assay has as its target T1, Human TRPV3 (Homo sapiens, UniProt Q8NET8).
T1 construct: expressed in transfected cells; host or cells: CHO cells (selected with G-418)
T1 sequence (Q8NET8 1-790): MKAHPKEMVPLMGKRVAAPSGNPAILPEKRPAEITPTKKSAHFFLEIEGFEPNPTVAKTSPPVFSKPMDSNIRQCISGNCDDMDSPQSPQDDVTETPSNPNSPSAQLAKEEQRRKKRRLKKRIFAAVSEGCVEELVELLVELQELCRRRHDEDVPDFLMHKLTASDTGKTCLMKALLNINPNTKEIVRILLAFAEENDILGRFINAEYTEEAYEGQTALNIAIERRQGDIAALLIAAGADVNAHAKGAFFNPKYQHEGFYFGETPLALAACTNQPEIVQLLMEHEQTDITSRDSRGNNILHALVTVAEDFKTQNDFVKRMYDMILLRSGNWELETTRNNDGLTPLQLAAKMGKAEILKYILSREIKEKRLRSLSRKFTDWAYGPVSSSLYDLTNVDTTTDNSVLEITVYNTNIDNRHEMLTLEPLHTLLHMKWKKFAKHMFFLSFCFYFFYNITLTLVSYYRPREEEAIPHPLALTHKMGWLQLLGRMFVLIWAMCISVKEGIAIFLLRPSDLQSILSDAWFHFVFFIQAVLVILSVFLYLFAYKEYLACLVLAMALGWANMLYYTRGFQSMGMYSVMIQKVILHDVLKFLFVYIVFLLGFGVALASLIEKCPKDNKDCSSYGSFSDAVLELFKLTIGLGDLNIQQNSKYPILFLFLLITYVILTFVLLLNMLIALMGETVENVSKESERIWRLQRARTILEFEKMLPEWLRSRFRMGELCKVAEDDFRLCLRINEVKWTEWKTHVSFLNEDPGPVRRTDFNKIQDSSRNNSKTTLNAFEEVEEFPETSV
As to the kind of experiment: 45Calcium uptake assay: inhibition of 2-APB induced cellular uptake of radioactive calcium. The class given is cell-based. Conditions: human TRPV3 expressing CHO cells, 2-APB 500 μM; for inhibition at 1 µM: 1 μM test compound, read-out: Percentage Inhibition (1 μM); for inhibition at 10 µM: 10 μM test compound, read-out: Percentage Inhibition (10 μM); for IC50: class symbol. In short, it runs like this:
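CHO cells expressing human TRPV3 were preincubated with compound for 10 min (0.5% DMSO final), then given 500 μM 2-APB plus 5 μCi/ml 45Ca2+ for 4 min. Lysate radioactivity was counted by scintillation; responses as % of maximal without antagonist, with IC50 by nonlinear regression.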

Structures are written as SMILES.

As to `COc1cccc(/C=C/c2nc3ccccc3n2-c2ccc(C(F)(F)F)cc2)c1OC1CCCC1` [Example 35, 2-[(E)-2-(2-Cyclopentyloxy-3-methoxyphenyl)vinyl]-1-[4-(trifluoromethyl)phenyl]-1H-benzimidazole], the inhibition at 1 µM worked out at 54.3% and the inhibition at 10 µM was 77.8%.
As to `COc1cccc(/C=C/c2nc3cc(F)c(Cl)cc3n2-c2ccc(C#N)cn2)c1OC1CCCC1` [Example 70, 6-{6-Chloro-2-[(E)-2-(2-[cyclopentyloxy]-3-methoxyphenyl)vinyl]-5-fluoro-1H-benzimidazol-1-yl}nicotinonitrile], the inhibition at 1 µM stood at 96.2%, the inhibition at 10 µM came to 98.1% and the IC50 was 50 to 100 nM.
As to `COc1cccc(/C=C/c2nc3cnccc3n2-c2ccc(C#N)cn2)c1OC1CCCC1` [Example 104, 6-{2-[(E)-2-(2-[Cyclopentyloxy]-3-methoxyphenyl)vinyl]-1H-imidazo[4,5-c]pyridin-1-yl}nicotinonitrile], the inhibition at 1 µM amounted to 48.7% and the inhibition at 10 µM is 98.3%.
Consider `COc1cccc(/C=C/c2nc3ccccc3n2-c2ccc(C#N)cn2)c1OCc1c(F)cccc1F` [Example 17, 6-(2-{(E)-2-[2-(2,6-Difluorobenzyloxy)-3-methoxyphenyl]vinyl}-1H-benzimidazol-1-yl)nicotinonitrile], for which the inhibition at 1 µM amounted to 84.3%, the inhibition at 10 µM came to 95.8% and the IC50 lay in the range of 100 to 500 nM.
As for `COc1cccc(/C=C/c2nc3ccccc3n2-c2ccccn2)c1OCC1CC1` [Example 1, 2-{(E)-2-[2-(Cyclopropylmethoxy)-3-methoxyphenyl]vinyl}-1-pyridin-2-yl-1H-benzimidazole], the inhibition at 1 µM was determined as 12.8% and the inhibition at 10 µM stood at 78.5%.
For `COc1cccc(/C=C/c2nc3ccc[n+]([O-])c3n2-c2ccc(C#N)cn2)c1OC1CCCC1` [Example 92, 6 (2-{(E)-2-[2-(cyclopentyloxy)-3-methoxyphenyl]ethenyl}-4-oxido-3H-imidazo[4,5-b]pyridin-3-yl)pyridine-3-carbonitrile], in that order: 3.02% and 24.5%.
With `COc1cccc(/C=C/c2nc3cc(F)c(F)cc3n2-c2ccc(C#N)cn2)c1OCC(C)C` [Example 66, 6-{5,6-Difluoro-2-[(E)-2-(2-isobutoxy-3-methoxyphenyl)vinyl]-1H-benzimidazol-1-yl}nicotinonitrile], the inhibition at 1 µM stood at 98.6%, the inhibition at 10 µM turned out to be 99.5% and the IC50 was 100 to 500 nM.
In the same order, the values of `COc1cccc(/C=C/c2nc3cc(F)c(F)cc3n2-c2ccc(C#N)cn2)c1OCC1CCC1` [Example 67] are 95.5%, 99% and less than 50 nM.
In the case of `COc1cccc(/C=C/c2nc3ccccc3n2-c2ccc(C#N)cn2)c1OCc1ccccc1C#N` [Example 15], the inhibition at 1 µM amounted to 90.3%, the inhibition at 10 µM is 95.1% and the IC50 was greater than 500 nM.
As to `COc1cccc(/C=C/c2nc3ccccc3n2-c2nc(C)c(C#N)s2)c1OC1CCCC1` [Example 49, 2-{2-[(E)-2-(2-Cyclopentyloxy-3-methoxyphenyl)vinyl]-1H-benzimidazol-1-yl}-4-methyl-1,3-thiazole-5-carbonitrile], the inhibition at 1 µM was found to be 56.1% and the inhibition at 10 µM was found to be 76.9%.
`CCCCCOc1c(/C=C/c2nc3cccnc3n2-c2ccc(C#N)cn2)cccc1OC(F)F` [Example 96, 6-(2-{(E)-2-[3-(Difluoromethoxy)-2-pentyloxyphenyl]vinyl}-3H-imidazo[4,5-b]pyridin-3-yl)nicotinonitrile]: the inhibition at 1 µM turned out to be 97.1%, the inhibition at 10 µM was determined as 98.1% and the IC50 was 50 to 100 nM.
As to `COc1cccc(/C=C/c2nc3cc(Cl)c(Cl)cc3n2-c2ccc(C#N)cn2)c1OC1CCCC1` [Example 72, 6-{5,6-Dichloro-2-[(E)-2-(2-cyclopentyloxy-3-methoxyphenyl)vinyl]-1H-benzimidazol-1-yl}nicotinonitrile], the inhibition at 1 µM is 90.8%, the inhibition at 10 µM turned out to be 95.5% and the IC50 was in the range of 100 to 500 nM.
With `COc1cccc(/C=C/c2nc3ccccc3n2-c2ncc(C(F)(F)F)cc2Cl)c1OC1CCCC1` [Example 29, 1-[3-Chloro-5-(trifluoromethyl)pyridin-2-yl]-2-[(E)-2-(2-cyclopentyloxy-3-methoxyphenyl)vinyl]-1H-benzimidazole], the inhibition at 1 µM came out at 78.8%, the inhibition at 10 µM turned out to be 93.6% and the IC50 was in the range of 100 to 500 nM.
Consider `COc1cccc(/C=C/c2nc3ccccc3n2-c2ncc(Br)cn2)c1OC1CCCC1` [Example 23, 1-(5-Bromopyrimidin-2-yl)-2-[(E)-2-(2-cyclopentyloxy-3-methoxyphenyl)vinyl]-1H-benzimidazole], for which the inhibition at 1 µM worked out at 56% and the inhibition at 10 µM was 84.5%.
As to `CCCCOc1c(/C=C/c2nc3cccnc3n2-c2ccc(C#N)cn2)cccc1OC` [Example 86, 6-{2-[(E)-2-(2-Butoxy-3-methoxyphenyl)vinyl]-3H-imidazo[4,5-b]pyridin-3-yl}nicotinonitrile], the inhibition at 1 µM stood at 92.6%, the inhibition at 10 µM is 95.2% and the IC50 fell in the range of 100 to 500 nM.
For `CCCCCOc1c(/C=C/c2nc3cc(F)c(F)cc3n2-c2ccc(C#N)cn2)cccc1OC` [Example 65, 6-{5,6-Difluoro-2-[(E)-2-(2-pentoxy-3-methoxyphenyl)vinyl]-1H-benzimidazol-1-yl}nicotinonitrile], in that order: 94.9%, 97.4% and 50 to 100 nM.
For the compound `COc1ccc2c(c1)nc(/C=C/c1cccc(OC)c1OC1CCCC1)n2-c1ccc(C#N)cn1` [Example 56, 6-{2-[(E)-2-(2-[Cyclopentyloxy]-3-methoxyphenyl)vinyl]-5-methoxy-1H-benzimidazol-1-yl}nicotinonitrile], the inhibition at 1 µM was determined as 96.8%, the inhibition at 10 µM was 98.9% and the IC50 lay in the range of 100 to 500 nM.
As for `COc1cccc(/C=C/c2nc3ccccc3n2-c2ncccc2C#N)c1OC1CCCC1` [Example 7, 2-{2-[(E)-2-(2-Cyclopentyloxy-3-methoxyphenyl)vinyl]-1H-benzimidazol-1-yl}nicotinonitrile], the inhibition at 1 µM stood at 6.4% and the inhibition at 10 µM came out at 92.8%.
Turning to `COc1cccc(/C=C/c2nc3cccnc3n2-c2ccc(C#N)cn2)c1OCC1CC1` [Example 89, 6-{2-[(E)-2-(2-[Cyclopropylmethoxy]-3-methoxyphenyl)vinyl]-3H-imidazo[4,5-b]pyridin-3-yl}nicotinonitrile], the inhibition at 1 µM was found to be 74.2%, the inhibition at 10 µM came to 96.6% and the IC50 was in the range of 100 to 500 nM.
Turning to `COc1cccc(/C=C/c2nc3ccccc3n2-c2ncccn2)c1OC1CCCC1` [Example 21], the inhibition at 1 µM worked out at 13% and the inhibition at 10 µM is 81.9%.
With `COc1cccc(/C=C/c2nc3ccccc3n2-c2ccc(C#N)cn2)c1OCc1ccc(F)cc1F` [Example 18, 6-(2-{(E)-2-[2-(2,4-Difluorobenzyloxy)-3-methoxyphenyl]vinyl}-1H-benzimidazol-1-yl)nicotinonitrile], the inhibition at 1 µM amounted to 94.2%, the inhibition at 10 µM is 97.3% and the IC50 lay within 100 to 500 nM.
In the same order, the values of `CCCCCOc1c(/C=C/c2nc3cccnc3n2-c2ccc(C#N)cn2)cccc1OC` [Example 87, 6-{2-[(E)-2-(2-Pentyloxy-3-methoxyphenyl)vinyl]-3H-imidazo[4,5-b]pyridin-3-yl}nicotinonitrile] are 95.7%, 99.1% and 100 to 500 nM.
On to `COc1cccc(/C=C/c2nc3ccccc3n2Cc2ccc(C(C)(C)C)cc2)c1OC1CCCC1` [Example 40, 2-[(E)-2-(2-Cyclopentyloxy-3-methoxyphenyl)vinyl]-1-(4-tert-butylbenzyl)-1H-benzimidazole], for which the inhibition at 1 µM turned out to be 11.7% and the inhibition at 10 µM amounted to 12.3%.
Regarding `COc1cccc(/C=C/c2nc3cc(Cl)cnc3n2-c2ccc(C#N)cn2)c1OC1CCCC1` [Example 95, 6-{6-Chloro-2-[(E)-2-(2-(cyclopentyloxy)-3-methoxyphenyl)vinyl]-3H-imidazo[4,5-b]pyridin-3-yl}nicotinonitrile], the inhibition at 1 µM was determined as 93.7%, the inhibition at 10 µM stood at 97.8% and the IC50 was in the range of 50 to 100 nM.
